What all share (test): NCI tumour cell line growth inhibition, 48 h
Experiment [1] relates to HOP-62.
The test system of experiment [2] is LOX IMVI.
The test system of experiment [3] is MDA-MB-231.
Experiment [4] relates to SK-MEL-2.
Experiment [5] has as its system U-251.
For experiment [6], the system named is K562.
The test system of experiment [7] is HCC 2998.
Experiment [8] relates to A549.
For experiment [9], the system named is MOLT-4.
Experiment [10] has as its system PC-3.
For experiment [11], the system named is SF-539.
In experiment [12] the test system is BT-549.
For experiment [13], the system named is UO-31.
Experiment [14] relates to SR.
Experiment [15] relates to HL-60.
Experiment [16] has as its system Hs-578T.
Experiment [17] concerns UACC-62.
Experiment [18] relates to SK-MEL-28.
The subject of experiment [19] is A498.
Experiment [20] concerns MCF7.

Here are results for seven molecules from ChEMBL document CHEMBL1201862, “PubChem BioAssay data set” (2004).

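Interpolation was linear, between the two tested concentrations surrounding the appropriate level; five concentrations were tested over 48 hours in 96-well plates. Here, GI50 denotes the concentration required for 50% inhibition of growth.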 Calls of active or inactive are those of the source. Rule as the data show it: active = GI50 up to about 1.1 µM and inactive = higher.

Consider `O=c1c2ccccc2n2nnc3ccc(NCCCNCCNCCCNc4ccc5nnn6c7ccccc7c(=O)c4c56)c1c32`, for which the GI50 in [1] was 2.99 µM (inactive); in [2], 0.566 µM (active); in experiment [3] it was 1.01 µM (active); in experiment [4], > 50 µM (inactive); in experiment [5], 0.759 µM (active); in experiment [6], 0.215 µM (active). Further, the GI50 was 0.308 µM (active) in [7]; 0.612 µM (active) in experiment [8]; 0.0582 µM (active) in experiment [9]; 3.21 µM (inactive) in experiment [10]; 0.724 µM (active) in experiment [11]; 7.36 µM (inactive) in [12]. Moreover, the GI50 in experiment [13] was 2.86 µM (inactive); in [14], 0.0883 µM (active); in experiment [15], 1.1 µM (active); in experiment [16], 5.52 µM (inactive); in experiment [17], 14.1 µM (inactive); in [18], > 18.5 µM (inactive). Also, the GI50 was 16.3 µM (inactive) in experiment [19] and 0.447 µM (active) in experiment [20].
Turning to `Cc1cc2nc(N3C(=O)/C(=C/c4ccccc4S)N=C3c3ccccc3)sc2cc1C`, the GI50 in [1] is 88.1 µM (inactive); in experiment [2], 29.2 µM (inactive); in experiment [3], 18.5 µM (inactive); in [4] it was 18.2 µM (inactive); in [5] it was 31.5 µM (inactive); in [6], 29.3 µM (inactive). In addition, the GI50 in experiment [7] is 31.8 µM (inactive); in [8], 36.6 µM (inactive); in experiment [9] it was 15.4 µM (inactive); in experiment [10] it was 18.5 µM (inactive); in [11], 56.6 µM (inactive); in [12], 28.6 µM (inactive). For the same molecule, the GI50 is 26.1 µM (inactive) in [13]; 33.2 µM (inactive) in experiment [14]; 30.1 µM (inactive) in experiment [15]; 39.2 µM (inactive) in experiment [16]; 32 µM (inactive) in experiment [17]; 54.2 µM (inactive) in experiment [18]. Further, the GI50 is 21.7 µM (inactive) in experiment [19] and 20 µM (inactive) in experiment [20].
As for `CN(C)c1ccc(C(=O)NCCCCCCC(=O)NO)cc1`, the GI50 is 2.3 µM (inactive) in experiment [1]; 0.272 µM (active) in [2]; 0.697 µM (active) in experiment [3]; 0.19 µM (active) in [4]; 0.486 µM (active) in [5]; 0.337 µM (active) in experiment [6]. For the same molecule, the GI50 in experiment [7] was 0.348 µM (active); in experiment [8] it was 0.514 µM (active); in [9], 0.241 µM (active); in experiment [10], 0.53 µM (active); in experiment [11], 0.589 µM (active); in [12], 1.7 µM (inactive). Further, the GI50 in [13] was 0.557 µM (active); in [14] it was 0.205 µM (active); in experiment [15], 0.397 µM (active); in experiment [16] it was 0.9 µM (active); in [17], 0.275 µM (active); in experiment [18] it was 0.434 µM (active). The values for the GI50 in [19] and in [20] were 0.711 µM (active) and 0.237 µM (active), respectively.
As to `COc1ccc(/N=C2\C(=S)N(c3ccc(OC)cc3)/C(=N/S(=O)(=O)c3ccccc3)N2c2ccccc2)cc1`, the GI50 in experiment [1] was > 35.3 µM (inactive); in experiment [2] it was 3.59 µM (inactive); in [3], 4.79 µM (inactive); in experiment [4], 7.64 µM (inactive); in [5], 8.53 µM (inactive); in experiment [6], 1.02 µM (active). Moreover, the GI50 in [7] is > 34.5 µM (inactive); in experiment [8] it was 34.9 µM (inactive); in experiment [9], 0.953 µM (active); in experiment [10], 4.67 µM (inactive); in [11], 9.12 µM (inactive); in experiment [12] it was 4.94 µM (inactive). Besides, the GI50 in experiment [13] was 3.59 µM (inactive); in [14] it was 0.889 µM (active); in experiment [15], 0.986 µM (active); in experiment [16] it was 17.9 µM (inactive); in experiment [17], 6.07 µM (inactive); in [18] it was 13.8 µM (inactive). The results for the GI50 in experiment [19] and in [20] were > 100 µM (inactive) and 17 µM (inactive), respectively.
With `CSc1nc(C)cc(Nc2ccc(O)c(CN3CCOCC3)c2)n1`, the GI50 in [1], in [2], in [3], in [4], in experiment [5] and in experiment [6] was > 100 µM (inactive) in each case. Also, the GI50 in experiment [7] is > 100 µM (inactive); in experiment [8] it was > 100 µM (inactive); in [9] it was 53.6 µM (inactive); in experiment [10], > 100 µM (inactive); in [11], > 100 µM (inactive); in [12] it was > 100 µM (inactive). Further, the GI50 is 71 µM (inactive) in experiment [13]; > 100 µM (inactive) in experiment [14]; > 100 µM (inactive) in [15]; > 100 µM (inactive) in experiment [16]; > 100 µM (inactive) in experiment [17]; > 100 µM (inactive) in [18]. Further, the GI50 in [19] and in experiment [20] was > 100 µM (inactive) throughout.
Take `Cc1cccc2c1C(=O)[C@@](C)([C@]1(C)Nc3cccc(C)c3C1=O)N2`: the GI50 in [1], in [2], in experiment [3], in experiment [4], in [5] and in experiment [6] was > 100 µM (inactive) each time. The GI50 in experiment [7] is > 100 µM (inactive); in [8], > 100 µM (inactive); in experiment [9], > 100 µM (inactive); in experiment [10], 38.7 µM (inactive); in experiment [11], > 100 µM (inactive); in [12], > 100 µM (inactive). Besides, the GI50 in experiment [13] is > 100 µM (inactive); in [14] it was > 100 µM (inactive); in [15], 0.499 µM (active); in experiment [16], > 100 µM (inactive); in [17] it was > 100 µM (inactive); in [18], > 100 µM (inactive). Moreover, the GI50 in experiment [19] and in experiment [20] was > 100 µM (inactive) in each case.
With `O=C(CNc1ccc([N+](=O)[O-])cc1)Nn1c(-c2ccccc2)nc2ccccc2c1=O`, the GI50 in experiment [1] is 11.2 µM (inactive); in [2], 0.841 µM (active); in experiment [3], 3.52 µM (inactive); in [4] it was 2.15 µM (inactive); in experiment [5], 1.95 µM (inactive); in experiment [6], 1.91 µM (inactive). Also, the GI50 was 9.02 µM (inactive) in experiment [7]; 8.77 µM (inactive) in [8]; 1.89 µM (inactive) in experiment [9]; 3.07 µM (inactive) in experiment [10]; 2.85 µM (inactive) in experiment [11]; 1.82 µM (inactive) in experiment [12]. Also, the GI50 in experiment [13] was 4.32 µM (inactive); in experiment [14], 3.1 µM (inactive); in experiment [15] it was 2.26 µM (inactive); in [16], 2.73 µM (inactive); in experiment [17] it was 1.32 µM (inactive); in [18] it was 3.25 µM (inactive). For the same molecule, the GI50 in experiment [19] is 7.01 µM (inactive); in experiment [20] it was 2.52 µM (inactive).
